According to US20040235900A1, “Antimicrobial oxazolifinones with improved pharmacokinetic profile and safety advantages” (priority 2002, published 2004):
Converted amounts (≈) assume the structure as drawn.

Assays:
[1] = test system: Streptococcus pneumoniae ATCC 49619; assay: In-vitro MIC test (agar dilution, 5% sheep blood), S. pneumoniae; format: cell-based; details: ATCC49619, Mueller Hinton agar containing 5% sheep blood, read-out: Minimum Inhibitory Concentrations (MIC) S. pneumoniae
Excerpt: The test methods used for verifying the antimicrobial action of compound within the scope of this invention are essentially the same as those described in PCT WO 95/25106, U.S. Pat. No. 5,668,286 and EP 0 750, 618 B1, with the difference that the strains of the organisms used for the MIC determinations in these patents and applications are Staphylococcus aureus ATCC 25923, Staphylococcus epidermidis ATCC 12828, Streptococcus pyogenes ATCC 19615.
The in-vitro MIC methods of test compounds were determined essentially as described in PCT WO 95/25106, U.S. Pat. No. 5,668,286 and EP 0 750 618 B1.
Overnight grown cultures of S. aureus organisms in Tryptic Soya broth were diluted in Mueller Hinton Broth to give optical density matching with MacFarland tube 0.5 standard. Cultures were further diluted 1:10 in Mueller Hinton broth. Using Denley's mutipoint inoculator, 10^4 cells were deposited on Mueller Hinton agar (Difco) containing range of 2 fold dilutions of test compounds. These plates were incubated for 24 hrs at 35° C. and MIC results recorded. MIC is defined as minimum drug concentration that inhibits test organisms. For determining MIC of test compounds against Streptococcus pneumoniae, Mueller Hinton agar containing 5% sheep blood was employed.

[2] = Myelosuppressive potential: spleen and thymus relative weights, 14-day oral dosing; format: in vivo, Wistar rats
Excerpt: Compound No.30 of U.S. Pat. […] Vehicle treated controls were maintained using identical experimental conditions. The treated as well as control rats were sacrificed 24 hr after the last dose. One parameter measured was the spleen to body weight ratio and thymus to body weight ratio in treated versus control animals. The spleen and thymus were trimmed free of fat and other contiguous organs/tissues and were weighed in an analytical balance (Sartorious BP 210). The spleen to terminal body weight ratio and the thymus to terminal body weights ratio was calculated to provide the respective relative weights. The ratio value of the respective relative weight of a treated animal versus the relative weight of a control animal is provided in Table 4. The myelosuppressive potential of a compound is inversely proportional to the ratio value. […] Values in each of the first two columns above represent ratio of relative weight (calculated organ to body weight ratio) of spleen or thymus in drug treated animals v/s control animals. […] The “[…]” column provides ratio of percentage reticulocytes in treated v/s percentage reticulocytes in control rats.

reticulocytes = assay: Myelosuppressive potential: reticulocyte counts, 14-day oral dosing; format: in vivo, Wistar rats
Method: A group of 6 Wistar rats (3 male and 3 female) was exposed to a representative compound of the invention viz. compound No. 4 of the invention, by oral route at a single dose of 50 mg/kg per day for 14 consecutive days. Compound No.30 of U.S. Pat. No. 5,668,286 was also subjected to the same protocol. Linezolid (LNZ) was used as a comparator drug and was administered to rats (by oral route at a dose of 2×25 mg/kg per day for 14 consecutive days. Vehicle treated controls were maintained using identical experimental conditions. The treated as well as control rats were sacrificed 24 hr after the last dose.
A second parameter measured was the change in reticulocyte count, for which the following method was used.
Blood was collected on day 15 (24 hours after the last dose administration) from all the treated as well as control rats by retro-orbital sinus puncture using clean glass rat capillary tubes. […]
3 slides/animal were prepared according to NCCLS staining procedure for reticulocyte staining and counting. […] The percentage presence of reticulocyte was determined in 1000 erythrocytes and was expressed in terms of percentage of reticulocytes over erythrocytes. […]
Values in each of the first two columns above represent ratio of relative weight (calculated organ to body weight ratio) of spleen or thymus in drug treated animals v/s control animals. […]

[3] = Wistar rats, oral, 14 consecutive days, 50 mg/kg per day (LNZ 2×25 mg/kg per day), ratio less than 0.75 indicates myelosuppressive potential

## CC(=O)NC[C@H]1CN(c2ccc(N3CCOCC3)c(F)c2)C(=O)O1 [Linezolid]
[1]
  MIC: 0.5 mg/L (≈ 1.48 µM)
[2]; [3]
  Relative Weights Ratio Spleen (spleen weight/body weight of treated animal versus control animal): 0.46
  Relative Weights Ratio Thymus (thymus weight/body weight of treated animal versus control animal): 0.46
reticulocytes; Wistar rats, oral, 14 consecutive days, 50 mg/kg per day (LNZ 2×25 mg/kg per day), blood on day 15, ratio less than 0.75 indicates myelosuppressive potential
  Ratio of % reticulocytes Retics (treated animal versus control animal): 0.43

## CC(=O)NC[C@H]1CN(c2ccc(N3CCC(CC#N)CC3)c(F)c2)C(=O)O1 [Compound 4, (S)-N-{3-[4-(4-cyanomethyl-piperidin-1-yl)-3-fluoro-phenyl]-2-oxo-oxazolidin-5-ylmethyl}-acetamide]
[1]
  MIC: 1 mg/L (≈ 2.67 µM)
[2]; rat, in vivo
  myelosuppressive potential (in words): no or lower myelosuppressive potential
reticulocytes; rat, in vivo, po
  change in ratio of percentage reticulocytes of treated animal versus control animal (in words): no significant change
